From ChEMBL document CHEMBL1126453, “Synthesis and anti-herpes activity of 5-trifluorovinyl-2-deoxyuridine” (1992)

Columns and labels:
[1] = Minimum antiviral concentration required to reduce virus-induced cytopathogenicity against HSV-1 (KOS) in E6SM cells; type: functional
[2] = Minimum antiviral concentration required to reduce virus-induced cytopathogenicity against HSV-2 (G) in E6SM cells; type: functional
[3] = Minimum antiviral concentration required to reduce virus-induced cytopathogenicity against TK' HSV-1 (VMW 1837) in E6SM cells; type: functional
[4] = Minimum antiviral concentration required to reduce virus-induced cytopathogenicity against TK-HSV-1 (B2006) in E6SM cells; type: functional
[5] = Minimum antiviral concentration required to reduce virus-induced cytopathogenicity against vaccinia virus in E6SM cells; type: functional
[6] = Minimum cytotoxic concentration required to cause alteration of normal E6SM cell culture morphology; type: functional; details: read-out: Min cytotoxic concentration
[7] = system: HEL; test: Minimum antiviral concentration required to reduce virus-induced cytopathogenicity against TK' VZV (07/1) in HEL cells; type: functional, Homo sapiens
[8] = system: HEL; test: Minimum antiviral concentration required to reduce virus-induced cytopathogenicity against TK' VZV (YS/R) in HEL cells; type: functional, Homo sapiens
[9] = system: HEL; test: Minimum antiviral concentration required to reduce virus-induced cytopathogenicity against VZV (OKA) in HEL cells; type: functional, Homo sapiens
[10] = system: HEL; test: Minimum antiviral concentration required to reduce virus-induced cytopathogenicity against VZV (YS) in HEL cells; type: functional, Homo sapiens
[11] = system: HEL; test: Minimum cytotoxic concentration required to cause alteration of normal human […] (HEL) morphology; type: functional; details: read-out: Min cytotoxic concentration
[12] = Minimum antiviral concentration required to reduce virus-induced cytopathogenicity against TK' HSV-1 (B2006) in E6SM cells; type: functional
[13] = Minimum antiviral concentration required to reduce virus-induced cytopathogenicity against Vaccinia virus in E6SM cells; type: functional
[14] = system: HEL; test: Minimum cytotoxic concentration required to cause alteration of normal human […] (HEL) morphology in HEL cells; type: functional; details: read-out: Min cytotoxic concentration

Row | Structure (SMILES) | Min antiviral concentration [1] | Min antiviral concentration [2] | Min antiviral concentration [3] | Min antiviral concentration [4] | Min antiviral concentration [5] | MCC [6] | Min antiviral concentration [7] | Min antiviral concentration [8] | Min antiviral concentration [9] | Min antiviral concentration [10] | MCC [11] | Min antiviral concentration [12] | Min antiviral concentration [13] | MCC [14]
1 | O=c1[nH]c(=O)n([C@H]2C[C@H](O)[C@@H](CO)O2)cc1C(F)=C(F)F | 0.05 µg/mL | 13 µg/mL | 1.5 µg/mL | 13 µg/mL | 8 µg/mL | 100 µg/mL | 13.6 µg/mL | 11.6 µg/mL | 0.16 µg/mL | 0.55 µg/mL | 10 µg/mL |  |  | 
2 | O=c1[nH]c(=O)n([C@H]2C[C@H](O)[C@@H](CO)O2)cc1/C=C/Br [BRIVUDINE] | 0.02 µg/mL | 100 µg/mL | 40 µg/mL |  |  | 200 µg/mL | >10 µg/mL | >10 µg/mL | 0.002 µg/mL | 0.004 µg/mL |  | 100 µg/mL | 0.3 µg/mL | 200 µg/mL
